This note sets out measurements from patent US10934298B2, “Substituted pyrazolo[1,5-a]pyrimidines for the treatment of medical disorders” (BIAL—BioTech Investments, Inc., priority 2016, dated 2021).

The test has as its target T1, glucocerebrosidase (Gcase) (Homo sapiens, UniProt P04062).
T1 construct: micellar solution containing 10 nM GCase and 100 nM saposin C
T1 sequence (P04062 40-536): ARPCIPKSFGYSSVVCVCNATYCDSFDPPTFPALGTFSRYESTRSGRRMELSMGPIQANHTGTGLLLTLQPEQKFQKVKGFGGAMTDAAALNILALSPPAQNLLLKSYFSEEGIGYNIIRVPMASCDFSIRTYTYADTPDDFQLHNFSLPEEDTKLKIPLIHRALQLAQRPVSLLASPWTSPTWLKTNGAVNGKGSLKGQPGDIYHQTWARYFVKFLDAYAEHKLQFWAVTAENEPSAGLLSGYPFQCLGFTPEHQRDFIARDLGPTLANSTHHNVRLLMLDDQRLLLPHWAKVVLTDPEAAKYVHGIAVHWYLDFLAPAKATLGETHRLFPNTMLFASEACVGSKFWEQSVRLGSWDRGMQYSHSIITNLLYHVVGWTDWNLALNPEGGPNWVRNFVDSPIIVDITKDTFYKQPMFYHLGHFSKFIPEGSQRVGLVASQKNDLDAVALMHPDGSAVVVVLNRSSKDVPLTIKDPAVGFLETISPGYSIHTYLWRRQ
Put plainly: Glucocerebrosidase (Gcase) activation assay with 4-methylumbelliferyl-beta-D-glucopyranoside substrate, saposin C and phosphatidylserine/triton micelles, fluorescence readout. The test is classed as biochemical. Particulars: for Percent Gcase Activation, 0.1 μM Test Compound: test compound at 0.1 μM; for Percent Gcase Activation, 1 μM Test Compound: test compound at 1.0 μM. In outline:
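Readout is endpoint fluorescence (ex 365, em 440 nm) after glycine pH 12.5 stop of a 15-min room-temperature reaction. Enzyme mix: GCase 10 nM plus saposin C 100 nM in 0.37 mol % PS/0.32 mM triton micelles, pH 4.7, compound pre-incubated 30 min; substrate solution 2 mM before 1:1 mixing. Tested at 1.0/0.1 μM, then 3-fold, 8-point series up to 5 μM.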

On to `Cc1cc(-c2ncccc2Cl)nc2c(C(=O)NC(C3CC3)C(F)(F)F)cnn12` (centres unmarked) [III-206], for which the “Percent Gcase Activation, 0.1 μM Test Compound” value was “*** (greater than 20% Gcase activation)” and the “Percent Gcase Activation, 1 μM Test Compound” value was “+++ (Gcase activation greater than 60%)”.
The matching figures for `Cc1cc(-c2cc(Cl)ccn2)nc2c(C(=O)NC(C3CC3)C(F)(F)F)cnn12` (centres unmarked) [III-207]: “*** (greater than 20% Gcase activation)” and “+++ (Gcase activation greater than 60%)”.
Regarding `Cc1cc(-c2ccc(Cl)cn2)nc2c(C(=O)NC(C3CC3)C(F)(F)F)cnn12` (centres unmarked) [III-208], the “Percent Gcase Activation, 0.1 μM Test Compound” value is “** (Gcase activation in the range of 10% up to 20%)” and the “Percent Gcase Activation, 1 μM Test Compound” value is on record as “+ (less than 30% Gcase activation)”.
On to `Cc1cc(-c2nccs2)nc2c(C(=O)NC(C3CC3)C(F)(F)F)cnn12` (centres unmarked) [III-209], for which the “Percent Gcase Activation, 0.1 μM Test Compound” value is listed as “*** (greater than 20% Gcase activation)” and the “Percent Gcase Activation, 1 μM Test Compound” value is recorded as “+++ (Gcase activation greater than 60%)”.
As for `Cc1cc(-c2ccc3c(c2)OCO3)nc2c(C(=O)N[C@@H](C)C3CC3)cnn12` [III-210], the “Percent Gcase Activation, 0.1 μM Test Compound” value is “*** (greater than 20% Gcase activation)” and the “Percent Gcase Activation, 1 μM Test Compound” value is “+++ (Gcase activation greater than 60%)”.
Consider `Cc1cc(-c2ccccc2C#N)nc2c(C(=O)NC(C3CC3)C(F)(F)F)cnn12` (centres unmarked) [III-211], for which the “Percent Gcase Activation, 0.1 μM Test Compound” value is “*** (greater than 20% Gcase activation)” and the “Percent Gcase Activation, 1 μM Test Compound” value is listed as “+++ (Gcase activation greater than 60%)”.
Turning to `Cc1cc(-c2ccccc2C#N)nc2c(C(=O)N[C@H](C)C(F)(F)F)cnn12` [III-212], the “Percent Gcase Activation, 0.1 μM Test Compound” value is “* (less than 10% Gcase activation)” and the “Percent Gcase Activation, 1 μM Test Compound” value is “++ (Gcase activation in the range of 30% up to 60%)”.
With `Cc1cc(-c2ccccc2C#N)nc2c(C(=O)N[C@@H](C)C(F)(F)F)cnn12` [III-213], the “Percent Gcase Activation, 0.1 μM Test Compound” value is “*** (greater than 20% Gcase activation)” and the “Percent Gcase Activation, 1 μM Test Compound” value is given as “+++ (Gcase activation greater than 60%)”.
In the case of `Cc1cc(-c2cc(C)n3ncc(C(=O)NC(C4CC4)C(F)(F)F)c3n2)sn1` (centres unmarked) [III-214], the “Percent Gcase Activation, 0.1 μM Test Compound” value is on record as “*** (greater than 20% Gcase activation)” and the “Percent Gcase Activation, 1 μM Test Compound” value is listed as “+++ (Gcase activation greater than 60%)”.
For the molecule `Cc1cc(-c2cc(C)n3ncc(C(=O)N[C@H](C4CC4)C(F)(F)F)c3n2)sn1` [III-215], the “Percent Gcase Activation, 0.1 μM Test Compound” value is recorded as “*** (greater than 20% Gcase activation)” and the “Percent Gcase Activation, 1 μM Test Compound” value is listed as “+++ (Gcase activation greater than 60%)”.
The matching figures for `Cc1cc(-c2cc(C)n3ncc(C(=O)N[C@@H](C4CC4)C(F)(F)F)c3n2)sn1` [III-216]: “*** (greater than 20% Gcase activation)” and “+++ (Gcase activation greater than 60%)”.
The like results for `Cc1cc(-c2cccc3ncoc23)nc2c(C(=O)N[C@@H](C)C3CC3)cnn12` [III-217] were, in that order, “** (Gcase activation in the range of 10% up to 20%)” and “+++ (Gcase activation greater than 60%)”.
The matching figures for `Cc1cc(-c2cccc3ncoc23)nc2c(C(=O)N[C@H](C)C3CC3)cnn12` [III-218]: “* (less than 10% Gcase activation)” and “++ (Gcase activation in the range of 30% up to 60%)”.
For the molecule `Cc1cc(-c2cccc3ncoc23)nc2c(C(=O)NC(C)(C)C(F)(F)F)cnn12` [III-219], the “Percent Gcase Activation, 0.1 μM Test Compound” value is “** (Gcase activation in the range of 10% up to 20%)” and the “Percent Gcase Activation, 1 μM Test Compound” value is “++ (Gcase activation in the range of 30% up to 60%)”.
The matching figures for `Cc1cc(-c2ccc3scnc3c2)nc2c(C(=O)NC(C)C(F)(F)F)cnn12` (centres unmarked) [III-220]: “*** (greater than 20% Gcase activation)” and “+++ (Gcase activation greater than 60%)”.
The like results for `Cc1cc(-c2cccc3ncsc23)nc2c(C(=O)NC(C)C(F)(F)F)cnn12` (centres unmarked) [III-221] were, in that order, “*** (greater than 20% Gcase activation)” and “+++ (Gcase activation greater than 60%)”.
In the case of `Cc1cc(-c2cccc3ncsc23)nc2c(C(=O)N[C@@H](C)C3CC3)cnn12` [III-222], the “Percent Gcase Activation, 0.1 μM Test Compound” value is listed as “*** (greater than 20% Gcase activation)” and the “Percent Gcase Activation, 1 μM Test Compound” value is reported as “+++ (Gcase activation greater than 60%)”.
The matching figures for `Cc1cc(-c2cccc3ncoc23)nc2c(C(=O)NC(C)(C)C3CC3)cnn12` [III-223]: “*** (greater than 20% Gcase activation)” and “+++ (Gcase activation greater than 60%)”.
Turning to `CCc1cc(N2CCN(C(C)C)C2=O)nc2c(C(=O)NC(C3CC3)C(F)(F)F)cnn12` (centres unmarked) [III-224], the “Percent Gcase Activation, 0.1 μM Test Compound” value is on record as “** (Gcase activation in the range of 10% up to 20%)” and the “Percent Gcase Activation, 1 μM Test Compound” value is on record as “+++ (Gcase activation greater than 60%)”.
The like results for `Cc1cc(N2CCN(C(C)C)C2=O)nc2c(C(=O)NC(C3CC3)C(F)(F)F)cnn12` (centres unmarked) [III-225] were, in that order, “** (Gcase activation in the range of 10% up to 20%)” and “+++ (Gcase activation greater than 60%)”.
The matching figures for `CCc1cc(N2CCN(C(C)C)C2=O)nc2c(C(=O)NC(C)C(F)(F)F)cnn12` (centres unmarked) [III-226]: “* (less than 10% Gcase activation)” and “++ (Gcase activation in the range of 30% up to 60%)”.
The matching figures for `Cc1cc(N2CCN(C(C)C)C2=O)nc2c(C(=O)NC(C)C(F)(F)F)cnn12` (centres unmarked) [III-227]: “* (less than 10% Gcase activation)” and “+ (less than 30% Gcase activation)”.
For `Cc1cc(N2CCNC2=O)nc2c(C(=O)NC(C3CC3)C(F)(F)F)cnn12` (centres unmarked) [III-228], the “Percent Gcase Activation, 0.1 μM Test Compound” value was “* (less than 10% Gcase activation)” and the “Percent Gcase Activation, 1 μM Test Compound” value is recorded as “+++ (Gcase activation greater than 60%)”.
The matching figures for `CCc1cc(N2CCN(C(C)C)C2=O)nc2c(C(=O)NC(C)(C)C)cnn12` [III-229]: “* (less than 10% Gcase activation)” and “++ (Gcase activation in the range of 30% up to 60%)”.
The like results for `Cc1cc(N2CCN(C(C)C)C2=O)nc2c(C(=O)NC(C)(C)C3CC3)cnn12` [III-230] were, in that order, “* (less than 10% Gcase activation)” and “++ (Gcase activation in the range of 30% up to 60%)”.
As for `Cc1cc(N2CCN(C(C)C)C2=O)nc2c(C(=O)NC(C)(C)C(F)(F)F)cnn12` [III-231], the “Percent Gcase Activation, 0.1 μM Test Compound” value was “* (less than 10% Gcase activation)” and the “Percent Gcase Activation, 1 μM Test Compound” value was “++ (Gcase activation in the range of 30% up to 60%)”.
In the case of `Cc1cc(N2CCN(C(C)C)C2=O)nc2c(C(=O)NC(C)(C)C)cnn12` [III-232], the “Percent Gcase Activation, 0.1 μM Test Compound” value was “* (less than 10% Gcase activation)” and the “Percent Gcase Activation, 1 μM Test Compound” value is recorded as “+ (less than 30% Gcase activation)”.
For `Cc1cc(N2CCN(CC(F)(F)F)C2=O)nc2c(C(=O)NC(C3CC3)C(F)(F)F)cnn12` (centres unmarked) [III-233], the “Percent Gcase Activation, 0.1 μM Test Compound” value is on record as “** (Gcase activation in the range of 10% up to 20%)” and the “Percent Gcase Activation, 1 μM Test Compound” value was “+++ (Gcase activation greater than 60%)”.
Regarding `Cc1cc(-c2cccc(Cl)n2)nc2c(C(=O)NC(C)C(F)(F)F)cnn12` (centres unmarked) [III-234], the “Percent Gcase Activation, 0.1 μM Test Compound” value was “*** (greater than 20% Gcase activation)” and the “Percent Gcase Activation, 1 μM Test Compound” value was “+++ (Gcase activation greater than 60%)”.
The matching figures for `Cc1cc(-c2cccc(Cl)n2)nc2c(C(=O)N[C@H](C)C(F)(F)F)cnn12` [III-235]: “** (Gcase activation in the range of 10% up to 20%)” and “+++ (Gcase activation greater than 60%)”.
For the molecule `Cc1cc(-c2cccc(Cl)n2)nc2c(C(=O)N[C@@H](C)C(F)(F)F)cnn12` [III-236], the “Percent Gcase Activation, 0.1 μM Test Compound” value is “*** (greater than 20% Gcase activation)” and the “Percent Gcase Activation, 1 μM Test Compound” value is “+++ (Gcase activation greater than 60%)”.
For `Cc1cc(-c2cccc(Cl)n2)nc2c(C(=O)NC(C3CC3)C(F)(F)F)cnn12` (centres unmarked) [III-237], the “Percent Gcase Activation, 0.1 μM Test Compound” value is “*** (greater than 20% Gcase activation)” and the “Percent Gcase Activation, 1 μM Test Compound” value is recorded as “+++ (Gcase activation greater than 60%)”.
The like results for `CCc1cc(N2CCOCC2)nc2c(C(=O)NC(C3CC3)C(F)(F)F)cnn12` (centres unmarked) [III-238] were, in that order, “* (less than 10% Gcase activation)” and “+++ (Gcase activation greater than 60%)”.
Consider `Cc1cc(-c2ccon2)nc2c(C(=O)NC(C3CC3)C(F)(F)F)cnn12` (centres unmarked) [III-239], for which the “Percent Gcase Activation, 0.1 μM Test Compound” value is “** (Gcase activation in the range of 10% up to 20%)” and the “Percent Gcase Activation, 1 μM Test Compound” value was “+++ (Gcase activation greater than 60%)”.
